Experimental data taken from patent US20250163104A1, “MACROCYCLIC IMMUNOMODULATORS” (priority 2021, published 2025).
Where a SMILES comes first, the peptide text is derived from it. Bridges are numbered along the chain shown (N, C = ends). [ ]: non-standard residue; d: D form. The star is where a group is joined. ξ: configuration not given here. Phe(3-CF3) = N[C@@H](Cc1cccc(C(F)(F)F)c1)C(=O)O; Ala(morpholin-4-yl) = N[C@@H](CN1CCOCC1)C(=O)O; Phe(4-COOH) = N[C@@H](Cc1ccc(C(=O)O)cc1)C(=O)O; Bip = N[C@@H](Cc1ccc(-c2ccccc2)cc1)C(=O)O; Phe(3-Me) = Cc1cccc(C[C@H](N)C(=O)O)c1; 3Pal = N[C@@H](Cc1cccnc1)C(=O)O; 4Pal = N[C@@H](Cc1ccncc1)C(=O)O; 2Thi = N[C@@H](Cc1cccs1)C(=O)O; Cha = N[C@@H](CC1CCCCC1)C(=O)O; Ile(3ξ) = CCC(C)[C@H](N)C(=O)O; Carboxymethyl = O=C(O)C*; Nle = CCCC[C@H](N)C(=O)O; Orn = NCCC[C@H](N)C(=O)O; Dab = NCC[C@H](N)C(=O)O; Dap = NC[C@H](N)C(=O)O

target: T1, human PD-1 / PD-L1-Ig binding on Jurkat cell line over-expressing human PD-1 (Jurkat-PD-1) (Homo sapiens, UniProt Q15116); assay: Jurkat-PD-1 Cell Binding High-Content Screening Assay (CBA); type: cell-based; details: Jurkat HPD1_PDL1 IC50, Jurkat-PD-1 cells, PE-labeled PD-L1-Ig 20 nM final
T1 construct: expressed in transfected cells; host or cells: Jurkat
Outline: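 Jurkat cells over-expressing human PD-1, in DMEM/10% FCS, pre-incubated with compound 2 h at 37° C. PE-labeled human PD-L1-Ig (20 nM final) added for 1 h; cells fixed in paraformaldehyde with Hoechst 33342 nuclear stain, washed, and bound fluorescence quantified by high-content imaging.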

T1 sequence (Q15116 25-288): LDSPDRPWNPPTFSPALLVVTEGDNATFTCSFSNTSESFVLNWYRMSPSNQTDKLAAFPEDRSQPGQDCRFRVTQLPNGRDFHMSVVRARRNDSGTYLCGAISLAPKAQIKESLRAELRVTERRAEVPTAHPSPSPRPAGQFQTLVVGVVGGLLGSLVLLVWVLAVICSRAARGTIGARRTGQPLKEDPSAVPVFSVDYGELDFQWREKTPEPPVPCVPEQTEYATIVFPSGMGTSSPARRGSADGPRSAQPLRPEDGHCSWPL

| SMILES | IC50 |
| --- | --- |
| CC(C)C[C@@H]1NC(=O)[C@H](Cc2c[nH]c3ccccc23)NC(=O)[C@H](CC(=O)O)NC(=O)[C@H](Cc2ccc(OCC(=O)O)cc2)NC(=O)[C@H](CN)NC(=O)CSC[C@@H](C(=O)NCC(N)=O)NC(=O)[C@H](CO)NC(=O)[C@H](C(C)C)NC(=O)[C@H](CC(C)C)NC(=O)[C@H](CC(N)=O)NC(=O)[C@@H](CC(C)C)NC(=O)[C@H](CCN)NC(=O)[C@H](C(C)C)NC(=O)[C@H](Cc2ccc(-c3ccccc3)cc2)NC1=O [Compound 1280] ({CH2CO}-[Dap]Y(Carboxymethyl)DWL[Bip]V[Dab][dL]NLVSCG-NH2; thioether N-14) | 9.7 nM |
| CC[C@H](C)[C@@H]1NC(=O)[C@H](Cc2ccc(-c3ccccc3)cc2)NC(=O)[C@H](C(C)C)NC(=O)[C@H](Cc2cccc(C(F)(F)F)c2)NC(=O)[C@H](CC(=O)O)NC(=O)[C@H](Cc2ccc(OCC(=O)O)cc2)NC(=O)[C@H](Cc2ccncc2)NC(=O)CSC[C@@H](C(=O)N[C@@H](C)C(N)=O)NC(=O)[C@H]([C@@H](C)O)NC(=O)[C@H](C(C)C)NC(=O)[C@H](CC2CCCCC2)NC(=O)[C@H](CCN)NC(=O)[C@@H](CC(C)C)NC(=O)[C@H](CCCN)NC1=O [Compound 1567] | 25.8 nM |
| CC(C)C[C@H]1NC(=O)[C@H](CCCN)NC(=O)[C@H](C(C)C)NC(=O)[C@H](Cc2ccc(-c3ccccc3)cc2)NC(=O)[C@H](C(C)C)NC(=O)[C@H](Cc2c[nH]c3ccccc23)NC(=O)[C@H](CC(=O)O)NC(=O)[C@H](Cc2ccc(C(=O)O)cc2)NC(=O)[C@H](Cc2ccc(OCC(=O)O)cc2)NC(=O)CSC[C@@H](C(=O)N[C@@H](CCN)C(=O)N[C@@H](CCCNC(=N)N)C(=O)O)NC(=O)[C@H](CCCN)NC(=O)[C@H](C(C)C)NC(=O)[C@H](CC2CCCCC2)NC(=O)[C@H](CCN)NC1=O [Compound 2587] ({CH2CO}-Y(Carboxymethyl)[Phe(4-COOH)]DWV[Bip]V[Orn][dL][Dab][Cha]V[Orn]C[Dab]R-OH; thioether N-14) | 18.4 nM |

same assay, conditions: Jurkat-PD-1 cells, PE-labeled PD-L1-Ig 20 nM final; read-out: Jurkat HPD1_PDL1 IC50

| IC50 | SMILES |
| --- | --- |
| 7.5 nM | Cc1cccc(C[C@@H]2NC(=O)[C@H](CC(=O)O)NC(=O)[C@H](Cc3ccc(O)cc3)NC(=O)[C@H](CC(N)=O)NC(=O)CSC[C@@H](C(=O)N[C@@H](C)C(N)=O)NC(=O)[C@H]([C@@H](C)O)NC(=O)[C@H](C(C)C)NC(=O)[C@H](CC3CCCCC3)NC(=O)[C@H](CCN)NC(=O)[C@@H](CC(C)C)NC(=O)[C@H](CCCN)NC(=O)[C@H](CCC(=O)O)NC(=O)[C@H](Cc3ccc(-c4ccccc4)cc3)NC(=O)[C@H](C(C)C)NC2=O)c1 [Compound 1420] ({CH2CO}-NYD[Phe(3-Me)]V[Bip]E[Orn][dL][Dab][Cha]VTCA-NH2; thioether N-14) |
| 32.9 nM | CCC(C)[C@@H]1NC(=O)[C@H](Cc2ccc(-c3ccccc3)cc2)NC(=O)[C@H](C(C)C)NC(=O)[C@H](Cc2ccc(F)c(C)c2)NC(=O)[C@H](CC(=O)O)NC(=O)[C@H](Cc2ccc(OCC(=O)O)cc2)NC(=O)[C@H](CN)NC(=O)CSC[C@@H](C(=O)N[C@@H](C)C(N)=O)NC(=O)[C@H]([C@@H](C)O)NC(=O)[C@H](C(C)C)NC(=O)[C@H](CC2CCCCC2)NC(=O)[C@H](CCN)NC(=O)[C@@H](CC(C)C)NC(=O)[C@H](CCCN)NC1=O (stereo partly drawn) [Compound 2244] |
| 55.3 nM | CCCC[C@@H]1NC(=O)[C@H](CC(N)=O)NC(=O)[C@@H](CC(C)C)NC(=O)[C@H](CN)NC(=O)[C@H](C(C)C)NC(=O)[C@H](Cc2ccc(-c3ccccc3)cc2)NC(=O)[C@H](CC(C)C)NC(=O)[C@H](Cc2c[nH]c3ccccc23)NC(=O)[C@H](CC(=O)O)NC(=O)[C@H](Cc2ccc(O)cc2)NC(=O)[C@H](Cc2ccccc2)NC(=O)CSC[C@@H](C(=O)NCC(N)=O)NC(=O)[C@H](CO)NC(=O)[C@H](C(C)C)NC1=O [Compound 1397] ({CH2CO}-FYDWL[Bip]V[Dap][dL]N[Nle]VSCG-NH2; thioether N-14) |
| 13.6 nM | CCC(C)[C@@H]1NC(=O)[C@H](Cc2ccc(-c3ccccc3)cc2)NC(=O)[C@H](C(C)C)NC(=O)[C@H](Cc2c[nH]c3ccccc23)NC(=O)[C@H](CC(=O)O)NC(=O)[C@H](Cc2cccnc2)NC(=O)[C@H](Cc2ccncc2)NC(=O)CSC[C@@H](C(=O)N[C@@H](C)C(N)=O)NC(=O)[C@H]([C@@H](C)O)NC(=O)[C@H](C(C)C)NC(=O)[C@H](CC2CCCCC2)NC(=O)[C@H](CCN)NC(=O)[C@@H](CC(C)C)NC(=O)[C@H](CCCN)NC1=O (stereo partly drawn) [Compound 2232] ({CH2CO}-[4Pal][3Pal]DWV[Bip][Ile(3ξ)][Orn][dL][Dab][Cha]VTCA-NH2; thioether N-14) |
| 59.9 nM | CC(C)C[C@@H]1NC(=O)[C@H](CCN)NC(=O)[C@@H](CC(C)C)NC(=O)[C@H](CCCCN)NC(=O)[C@H](CCCNC(=N)N)NC(=O)[C@H](Cc2ccc(-c3ccccc3)cc2)NC(=O)[C@H](C(C)C)NC(=O)[C@H](Cc2c[nH]c3ccccc23)NC(=O)[C@H](CC(=O)O)NC(=O)[C@H](Cc2ccc(O)cc2)NC(=O)[C@H](CC(N)=O)NC(=O)CSC[C@@H](C(=O)N[C@@H](C)C(N)=O)NC(=O)[C@H]([C@@H](C)O)NC(=O)[C@H](C(C)C)NC1=O [Compound 1008] ({CH2CO}-NYDWV[Bip]RK[dL][Dab]LVTCA-NH2; thioether N-14) |
| 964 nM | CC(C)C[C@H]1NC(=O)[C@H](CCCN)NC(=O)[C@H](CCCN)NC(=O)[C@H](Cc2ccc(-c3ccccc3)cc2)NC(=O)[C@H](Cc2ccc(C(=O)O)cc2)NC(=O)[C@H](Cc2cccc(C(F)(F)F)c2)NC(=O)[C@H](CC(N)=O)NC(=O)[C@H](Cc2ccc(C(=O)O)cc2)NC(=O)[C@H](CN2CCOCC2)NC(=O)CSC[C@@H](C(=O)N[C@@H](CCN)C(N)=O)NC(=O)[C@H](CCCN)NC(=O)[C@H](C(C)C)NC(=O)[C@H](CC2CCCCC2)NC(=O)[C@H](CCN)NC1=O [Example 2728] ({CH2CO}-[Ala(morpholin-4-yl)][Phe(4-COOH)]N[Phe(3-CF3)][Phe(4-COOH)][Bip][Orn][Orn][dL][Dab][Cha]V[Orn]C[Dab]-NH2; thioether N-14) |
| 6.9 nM | CC(C)C[C@H]1NC(=O)[C@H](CCCN)NC(=O)[C@H](C(C)C)NC(=O)[C@H](Cc2ccc(-c3ccccc3)cc2)NC(=O)[C@H](C(C)C)NC(=O)[C@H](Cc2c[nH]c3ccccc23)NC(=O)[C@H](CC(=O)O)NC(=O)[C@H](Cc2ccc(OCC(=O)O)cc2)NC(=O)[C@H](Cc2ccncc2)NC(=O)CSC[C@@H](C(=O)N[C@@H](C)C(N)=O)NC(=O)[C@H](C(C)O)NC(=O)[C@H](C(C)C)NC(=O)[C@H](CC2CCCCC2)NC(=O)[C@H](CCN)NC1=O (stereo partly drawn) [Compound 2522] |
| 18.6 nM | CC(C)C[C@H]1NC(=O)[C@H](CCCN)NC(=O)[C@H](CCC(=O)O)NC(=O)[C@H](Cc2ccc(-c3ccccc3)cc2)NC(=O)[C@H](C(C)C)NC(=O)[C@H](Cc2cccs2)NC(=O)[C@H](CC(=O)O)NC(=O)[C@H](Cc2cccs2)NC(=O)[C@H](CN)NC(=O)CSC[C@@H](C(=O)N[C@@H](C)C(N)=O)NC(=O)[C@H]([C@@H](C)O)NC(=O)[C@H](C(C)C)NC(=O)[C@H](CC2CCCCC2)NC(=O)[C@H](CCN)NC1=O [Compound 2205] ({CH2CO}-[Dap][2Thi]D[2Thi]V[Bip]E[Orn][dL][Dab][Cha]VTCA-NH2; thioether N-14) |
| 6.1 nM | CC(C)C[C@H]1NC(=O)[C@H](CN)NC(=O)[C@H](C(C)C)NC(=O)[C@H](Cc2ccc(-c3ccccc3)cc2)NC(=O)[C@H](C(C)C)NC(=O)[C@H](Cc2c[nH]c3ccccc23)NC(=O)[C@H](CC(=O)O)NC(=O)[C@H](Cc2ccncc2)NC(=O)[C@H](Cc2ccc(OCC(=O)O)cc2)NC(=O)CSC[C@@H](C(=O)NCC(N)=O)NC(=O)[C@H](CO)NC(=O)[C@H](C(C)C)NC(=O)[C@H](CC2CCCCC2)NC(=O)[C@H](CC(N)=O)NC1=O [Compound 1456] ({CH2CO}-Y(Carboxymethyl)[4Pal]DWV[Bip]V[Dap][dL]N[Cha]VSCG-NH2; thioether N-14) |
| 24.8 nM | CC[C@H](C)[C@@H]1NC(=O)[C@H](Cc2ccc(-c3ccccc3)cc2)NC(=O)[C@H](C(C)C)NC(=O)[C@H](Cc2c[nH]c3ccccc23)NC(=O)[C@H](CC(=O)O)NC(=O)[C@H](Cc2ccc(O)cc2)NC(=O)[C@H](CC(N)=O)NC(=O)CSC[C@@H](C(=O)NCC(N)=O)NC(=O)[C@H]([C@@H](C)O)NC(=O)[C@H](C(C)C)NC(=O)[C@H](CC(C)C)NC(=O)[C@H](CCCCN)NC(=O)[C@@H](CC(C)C)NC(=O)[C@H](CCCN)NC1=O [Compound 1131] ({CH2CO}-NYDWV[Bip]I[Orn][dL]KLVTCG-NH2; thioether N-14) |
| 16.3 nM | CNC[C@@H]1NC(=O)CSC[C@@H](C(=O)N[C@@H](C)C(N)=O)NC(=O)[C@H](C(C)O)NC(=O)[C@H](C(C)C)NC(=O)[C@H](CC2CCCCC2)NC(=O)[C@H](CCN)NC(=O)[C@@H](CC(C)C)NC(=O)[C@H](CCCN)NC(=O)[C@H](C(C)C)NC(=O)[C@H](Cc2ccc(-c3ccccc3)cc2)NC(=O)[C@H](C(C)C)NC(=O)[C@H](Cc2c[nH]c3ccccc23)NC(=O)[C@H](CC(=O)O)NC(=O)[C@H](Cc2ccc(OCC(=O)O)cc2)NC1=O (stereo partly drawn) [Compound 2515] |
| 322 nM | CC(C)C[C@H]1NC(=O)[C@H](CCCN)NC(=O)[C@H](CCC(=O)O)NC(=O)[C@H](Cc2ccc(-c3ccccc3)cc2)NC(=O)[C@H](C(C)C)NC(=O)[C@H](Cc2cccnc2)NC(=O)[C@H](CC(=O)O)NC(=O)[C@H](Cc2ccc(OCC(=O)O)cc2)NC(=O)[C@H](CN)NC(=O)CSC[C@@H](C(=O)N[C@@H](C)C(N)=O)NC(=O)[C@H]([C@@H](C)O)NC(=O)[C@H](C(C)C)NC(=O)[C@H](CC2CCCCC2)NC(=O)[C@H](CCN)NC1=O [Compound 2156] ({CH2CO}-[Dap]Y(Carboxymethyl)D[3Pal]V[Bip]E[Orn][dL][Dab][Cha]VTCA-NH2; thioether N-14) |
